This assay addresses recombinant HCV NS5B (Hepatitis C virus genotype 1b, UniProt P26663). Nature of the assay: biochemical. Particulars: flashplate, polyrA/biotinylated-oligo dT, 100 nM NS5B, 2 hrs at room temperature; read-out: RNA pol Assay 2 IC50 (μm). The procedure: In vitro HCV RdRp Flashplate Scintillation Proximity Assay (Strep-Flash Assay) Used to Evaluate Analogues:
In brief, a 400 ng/μl polyrA solution (Amersham Pharmacia Biotech) was mixed volume-to-volume with 5′ biotin-oligo dT12 at 20 pmol/μl. The template and primers were denatured at 95 C for 5 minutes then incubated at 37 C for 10 minutes. Annealed template-primers were subsequently diluted in a Tris-HCl containing buffer and allowed to bind to streptavidin-coated flashplates overnight.
Chain of recombinant HCV NS5B (P26663 2420-3010 limits assumed): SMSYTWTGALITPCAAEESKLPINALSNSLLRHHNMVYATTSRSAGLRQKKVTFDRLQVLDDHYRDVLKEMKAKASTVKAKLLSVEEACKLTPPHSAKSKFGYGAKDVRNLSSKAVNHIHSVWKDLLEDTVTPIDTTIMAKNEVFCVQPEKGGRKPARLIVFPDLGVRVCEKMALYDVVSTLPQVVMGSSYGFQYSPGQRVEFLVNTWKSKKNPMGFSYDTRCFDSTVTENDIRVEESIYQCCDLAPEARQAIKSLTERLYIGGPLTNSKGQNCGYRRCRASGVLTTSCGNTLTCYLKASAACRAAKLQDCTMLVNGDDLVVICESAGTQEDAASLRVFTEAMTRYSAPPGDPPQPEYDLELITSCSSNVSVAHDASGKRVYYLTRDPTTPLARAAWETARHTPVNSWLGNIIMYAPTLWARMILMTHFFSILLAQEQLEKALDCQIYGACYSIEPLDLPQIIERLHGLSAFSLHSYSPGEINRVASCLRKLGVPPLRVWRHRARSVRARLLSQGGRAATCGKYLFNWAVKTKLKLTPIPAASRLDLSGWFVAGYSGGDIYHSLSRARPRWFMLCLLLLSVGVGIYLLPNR
Take `O=C(O)[C@H](Cc1ccccc1)N(Cc1ccc(-c2ccc(F)cc2)s1)C(=O)c1ccc(Cl)cc1Cl` [compound #141, (2s)-2-{(2,4-Dichloro-benzoyl)-[5-(4-fluoro-phenyl)-thiophen-2-ylmethyl]-amino}-3-phenyl-propionic acid]: the half-inhibitory concentration (IC50) (as a rule, the concentration at which inhibition is half-maximal) was below 5 µM.
Then `COc1cccc(CN(C(=O)c2ccc(Cl)cc2Cl)[C@@H](Cc2ccccc2)C(=O)O)c1` [compound #151, (2s)-2-[(2,4-Dichloro-benzoyl)-(3-methoxy-benzyl)-amino]-3-phenyl-propionic acid], with below 5 µM; and `CCOC(=O)c1ccc(-c2ccsc2CN(C(=O)c2ccc(Cl)cc2Cl)[C@@H](Cc2ccccc2)C(=O)O)cc1` [compound #160, (2s)-4-(2-{[(1s-1-Carboxy-2-phenyl-ethyl)-(2,4-dichloro-benzoyl)-amino]-methyl}-thiophen-3-yl)-benzoic acid ethyl ester], with below 5 µM.
For `Cc1ccc(C(=O)N(Cc2cc(-c3ccc(F)c(Cl)c3)cs2)[C@@H](Cc2ccccc2)C(=O)O)c(C)c1` [Compound #192, 2-[[4-(3-Chloro-4-fluoro-phenyl)-thiophen-2-ylmethyl]-(2,4-dimethyl-benzoyl)-amino]-3-phenyl-propionic acid], the IC50 is below 5 µM.
For the molecule `CSc1ccc(-c2ccsc2CN(C(=O)c2ccc(Cl)cc2Cl)[C@@H](Cc2ccccc2)C(=O)O)cc1` [compound #183, 2-{(2,4-Dichloro-benzoyl)-[3-(4-methylsulfanyl-phenyl)-thiophen-2-ylmethyl]-amino}-3-phenyl-propionic acid], the IC50 lay in the range of 5 to 20 µM.
To `CC(c1cccc(C#N)c1)N(C(=O)c1ccc(Cl)cc1Cl)[C@@H](Cc1ccccc1)C(=O)O` (stereo in doubt) [Compound #205, 2-[[1-(3-CYANO-PHENYL)-ETHYL]-(2,4-DICHLORO-BENZOYL)-AMINO]-3PHENYL-PROPIONIC ACID] belongs 5 to 20 µM; to `CC(C)(C(=O)O)N(Cc1ccc(-c2cccc(C(F)(F)F)c2)o1)C(=O)c1ccc(Cl)cc1Cl` [compound #147, (2s)-2-{(2,4-Dichloro-benzoyl)-[5-(3-trifluoromethyl-phenyl)-furan-2-ylmethyl]-amino}-2-methyl-propionic acid], 5 to 20 µM.
Take `O=C(O)[C@H](Cc1ccccc1)N(Cc1cnc(-c2cccc(C(F)(F)F)c2)s1)C(=O)c1ccc(Cl)cc1Cl` [compound #148, (2s)-2-{(2,4-Dichloro-benzoyl)-[2-(3-trifluoromethyl-phenyl)-thiazol-5-ylmethyl]-amino}-3-phenyl-propionic acid]: the IC50 is below 5 µM.
Then `Nc1cccc(CN(C(=O)c2ccc(Cl)cc2Cl)[C@@H](Cc2ccccc2)C(=O)O)c1` [Compound #194, 2-[(3-Amino-benzyl)-(2,4-dichloro-benzoyl)-amino]-3-phenyl-propionic acid], with 5 to 20 µM; and `N#Cc1cccc(-c2ccc(CN(C(=O)c3ccc(Cl)cc3Cl)[C@@H](Cc3ccccc3)C(=O)O)o2)c1` [Compound #119, 2-[[5-(3-Cyano-phenyl)-furan-2-ylmethyl]-(2,4-dichloro-benzoyl)-amino]-3-phenyl-propionic acid], with below 5 µM; and `O=C(O)[C@@H](Cc1ccccc1)N(Cc1ccccc1)C(=O)c1ccc(Cl)cc1Cl` [Compound #199, 2-[Benzyl-(2,4-dichloro-benzoyl)-amino]-3-phenyl-propionic acid], with 5 to 20 µM.
For the molecule `O=C(O)[C@H](Cc1ccccc1)N(Cc1sccc1-c1ccc(Cl)cc1Cl)C(=O)c1ccc(Cl)cc1Cl` [compound #157, (2s)-2-{(2,4-Dichloro-benzoyl)-[3-(2,4-dichloro-phenyl)-thiophen-2-ylmethyl]-amino}-3-phenyl-propionic acid], the IC50 was in the range of 5 to 20 µM.
To `O=C(O)[C@H](Cc1ccccc1)N(Cc1ccccc1[N+](=O)[O-])C(=O)c1ccc(Cl)cc1Cl` [Compound #201, 2-[(2,4-DICHLORO-BENZOYL)-(2-NITRO-BENZYL)-AMINO]-3-PHENYL-PROPIONIC ACID] belongs 5 to 20 µM; to `O=C(O)[C@H](Cc1ccccc1)N(Cc1sccc1-c1ccc(OC(F)(F)F)cc1)C(=O)c1ccc(Cl)cc1Cl` [compound #179, 2-{(2,4-Dichloro-benzoyl)-[3-(4-trifluoromethoxy-phenyl)-thiophen-2-ylmethyl]-amino}-3-phenyl-propionic acid], 5 to 20 µM.
Consider `Cn1nc(C(F)(F)F)c(CN(C(=O)c2ccc(Cl)cc2Cl)[C@@H](Cc2ccccc2)C(=O)O)c1Oc1cccc(Cl)c1` [compound #153, (2s)-2-[[5-(3-Chloro-phenoxy)-1-methyl-3-trifluoromethyl-1h-pyrazol-4-ylmethyl]-(2,4-dichloro-benzoyl)-amino]-3-phenyl-propionic acid], for which the half-inhibitory concentration (IC50) was 5 to 20 µM.
Regarding `O=C(O)C(Cc1ccccc1)N(Cc1cccn1S(=O)(=O)c1ccccc1)C(=O)c1ccc(Cl)cc1Cl` (centres unmarked) [compound #174, 2-[(1-Benzenesulfonyl-1h-pyrrol-2-ylmethyl)-(2,4-dichloro-benzoyl)-amino]-3-phenyl-propionic acid], the IC50 lay in the range of 5 to 20 µM.
To `O=C(O)[C@H](Cc1ccccc1)N(Cc1sccc1-c1ccc(Cl)c(F)c1)C(=O)c1ccc(Cl)cc1Cl` [compound #156, (2s)-2-[[3-(4-Chloro-3-fluoro-phenyl)-thiophen-2-ylmethyl]-(2,4-dichloro-benzoyl)-amino]-3-phenyl-propionic acid] belongs 5 to 20 µM.
Turning to `CC(C)(C)OC(=O)N1CCC[C@@H]1CN(C(=O)c1ccc(Cl)cc1Cl)[C@@H](Cc1ccccc1)C(=O)O` [compound #165, d-2-{[(1-carboxy-2-phenyl-ethyl)-(2,4-dichloro-benzoyl)-amino]-methyl}-pyrrolidine-1-carboxylic acid #tert!-butyl ester], the 50% inhibitory concentration (IC50) was in the range of 5 to 20 µM.
As to `O=C(O)C(Cc1ccccc1)N(Cc1cccc(-c2nn[nH]n2)c1)C(=O)c1ccc(Cl)cc1Cl` (centres unmarked) [Compound #200, 2-{(2,4-DICHLORO-BENZOYL)-[3-(2H-TETRAZOL-5-YL)-BENZYL]-AMINO}-3-PHENYL-PROPIONIC ACID], the half-maximal inhibitory concentration (IC50) is below 5 µM.
Turning to `O=C(O)[C@H](Cc1ccccc1)N(C(=O)c1ccc(Cl)cc1Cl)c1ccc(Br)cc1` [compound #191, 2-[(4-Bromo-phenyl)-(2,4-dichloro-benzoyl)-amino]-3-phenyl-propionic acid], the IC50 was above 20 µM.
Then `O=C(O)[C@H](Cc1ccccc1)N(Cc1sccc1-c1cccc(F)c1)C(=O)c1ccc(Cl)cc1Cl` [compound #161, (2s)-2-{(2,4-Dichloro-benzoyl)-[3-(3-fluoro-phenyl)-thiophen-2-ylmethyl]-amino}-3-phenyl-propionic acid], with 5 to 20 µM; and `O=C(O)[C@H](Cc1ccccc1)N(Cc1ccc[n+]([O-])c1)C(=O)c1ccc(Cl)cc1Cl` [Compound #210, 2-[(2,4-DICHLORO-BENZOYL)-(1-OXY-PYRIDIN-3-YLMETHYL)-AMINO]-3-PHENYL-PROPIONIC ACID], with below 5 µM; and `O=C(O)C(Cc1ccccc1)N(Cc1ccccc1OCc1ccccc1)C(=O)c1ccc(Cl)cc1Cl` (centres unmarked) [compound #177, 2-[(2-Benzyloxy-benzyl)-(2,4-dichloro-benzoyl)-amino]-3-phenyl-propionic acid], with 5 to 20 µM.
Turning to `CCOC(=O)c1ccccc1-c1ccsc1CN(C(=O)c1ccc(Cl)cc1Cl)[C@@H](Cc1ccccc1)C(=O)O` [compound #159, (2s)-2-(2-{[(1s-1-Carboxy-2-phenyl-ethyl)-(2,4-dichloro-benzoyl)-amino]-methyl}-thiophen-3-yl)-benzoic acid ethyl ester], the IC50 is 5 to 20 µM.
Then `CS(=O)(=O)c1cccc(CN(C(=O)c2ccc(Cl)cc2Cl)[C@@H](Cc2ccccc2)C(=O)O)c1` [Compound #208, 2-[(2,4-DICHLORO-BENZOYL)-(3-METHANESULFONYL-BENZYL)-AMINO]-3-PHENYL-PROPIONIC ACID], with 5 to 20 µM; and `O=C(O)[C@H](Cc1ccccc1)N(Cc1sccc1-c1ccc(F)c(Cl)c1)C(=O)c1ccc(Cl)cc1Cl` [compound #145, (2s)-2-[[3-(3-Chloro-4-fluoro-phenyl)-thiophen-2-ylmethyl]-(2,4-dichloro-benzoyl)-amino]-3-phenyl-propionic acid], with 5 to 20 µM.
Then `CN(C(=O)c1ccc(Cl)cc1Cl)[C@H](Cc1ccc(-c2cc3ccccc3o2)cc1)C(=O)O` [Compound #29, 3-(4-Benzofuran-2-yl-phenyl)-2-[(2,4-dichloro-benzoyl)-methyl-amino]-propionic acid], with 5 to 20 µM; and `O=C(O)[C@H](Cc1ccccc1)N(Cc1cccnc1)C(=O)c1ccc(Cl)cc1Cl` [compound #170, 2-[(2,4-Dichloro-benzoyl)-pyridin-3-ylmethyl-amino]-3-phenyl-propionic acid], with 5 to 20 µM; and `N#Cc1cccc(CN(C(=O)c2ccc(Cl)cc2Cl)[C@@H](Cc2ccccc2)C(=O)O)c1` [compound #54, (2S)-2-[(3-Cyano-benzyl)-(2,4-dichloro-benzoyl)-amino]-3-phenyl-propionic acid], with below 5 µM.
With `CC(C)(C)OC(=O)N1CCC[C@H]1CN(C(=O)c1ccc(Cl)cc1Cl)[C@@H](Cc1ccccc1)C(=O)O` [compound #164, L-2-{[(1-Carboxy-2-phenyl-ethyl)-(2,4-dichloro-benzoyl)-amino]-methyl}-pyrrolidine-1-carboxylic acid #tert!-butyl ester], the IC50 lay in the range of 5 to 20 µM.
On to `N#Cc1cccc(-c2ccsc2CN(C(=O)c2ccc(Cl)cc2Cl)[C@@H](Cc2ccccc2)C(=O)O)c1` [compound #162, (2s)-2-[[3-(3-Cyano-phenyl)-thiophen-2-ylmethyl]-(2,4-dichloro-benzoyl)-amino]-3-phenyl-propionic acid], for which the IC50 was below 5 µM.
To `O=C(O)C(Cc1ccccc1)N(Cc1ccsc1)C(=O)c1ccc(Cl)cc1Cl` (stereo in doubt) [compound #143, (2s)-2-[(2,4-Dichloro-benzoyl)-thiophen-3-ylmethyl-amino]-3-phenyl-propionic acid] belongs below 5 µM.

The values above are taken from patent publication US20030229053A1, “Compounds and methods for the treatment or prevention of flavivirus infections” (Shire BioChem Inc., priority 2001, published 2003).
